Tests used:
Format in all cases: physicochemical
[1] = Storage of amorphous anhydrous form at ambient conditions
Method: . The amorphous anhydrous form of (S)-CSA salt of S-ketamine was also obtained (in a mixture with the monohdrate form) by slurrying the crystalline monohydrate form of (S)-CSA salt of S-ketamine in 2-methyl THF or isopropyl acetate at about 80° C. for about 4 days.

[2] = Dynamic Vapor Sorption (DVS) measurement
Method: Dynamic Vapor Sorption (DVS) measurements (where completed) were measured using a Projekt Messtechnik Sorptions Prufsystem SPS 11 or Surface Measurement Systems DVS-1 scanning (cycling relative humidity and hodling the sample at a set relative humidity) as follow: (a) holding sample at 50% RH for 2 hours; (b) 50% RH to 0% RH (5%/h); holding at 0% RH for 5 hours; (c) 0% RH to 95% RH (5%/h); holding at 95% RH for 5 hours; and (d) 95% RH to 50% RH (5%/h); holding at 50% RH for 2 hours.

[3] = TG-FTIR measurement; details: 25° C. to 300° C., 10K/min, nitrogen
Method: ThermoGravimetric-Fourier Transform InfraRed (TG-FTIR) measurements, where carried out were measures using a Netzsche Thermo-Microbalance TG209 with Bruker FT-IR Spectrometer Vector 22, with aluminum crucible with microhoel, nitrogen atmosphere and scanning form 25° C. to 300° C. at a heating rate of 10K/min.

[4] = Approximate solubility by stepwise dilution of a suspension; details: thermodynamic from solid
Method: The approximate solubility of the monohydrate crystalline form of the (S)-CSA salt of S-ketamine was measured by stepwise dilution of a suspension of about 10 mg of the sample in 0.05 mL solvent. Table 4 below lists the approximate solubility, denoted “S”. If a sample was not dissolved by addition of a total of 10-12 mL of solvent, the solubility is indicated as <1 mg/mL in the Table 4, below.

[5] = Solubility in select solvents after 24 hours, filtrate analyzed by HPLC
Method: Additionally, the solubility of the monohydrate crystalline form of the (S)-CSA salt of S-ketamine in select solvents was determined as follows: 21 g of (S)-CSA salt of S- ketamine was dissolved in 100 mL of solvent (as listed in Table 5 below). After 24 hours, the solutions were analyzed visually. If the compound was completely dissolved, solubility was above 20 g/100 mL. If the compound was not completely dissolved, any remaining precipitate was filtered off, the filtrate was diluted 400-fold with HPLC dilution solvent (or acetonitrile/HPLC dilution solvent) and analyzed by HPLC, with results as listed in Table 5, below.

SMILES: CC1(C)[C@@H]2CC[C@@]1(CS(=O)(=O)O)C(=O)C2.CN[C@]1(c2ccccc2Cl)CCCCC1=O
- Hygroscopicity ([1]; amorphous, anhydrous form): hygroscopic
- Form stability on storage ([1]; storage at ambient conditions): rapidly converts to the monohydrate form

SMILES: CN[C@]1(c2ccccc2Cl)CCCCC1=O [(S)-2-(2-chlorophenyl)-2-(methylammonium)cyclohexanone(+)-camphorsulfonate monohydrate]
- Hygroscopicity ([2]; cycling 0% RH to 95% RH): no hygroscopicity
- Physical stability at elevated relative humidity ([2]; elevated relative humidity): physical stability
- Chemical decomposition temperature [3]: above 230 °C
- solubility ([4]; 10:1 acetone:water, organic solvent or mixture, solvent: 10:1 aectobne:water): 20 to 24 mg/mL
- solubility ([4]; aqueous with cosolvent or surfactant or cyclodextrin, solvent: 1:1 2-propanol:water): 93 to 189 mg/mL
- solubility ([4]; aqueous with cosolvent or surfactant or cyclodextrin, solvent: 1:1 acetone:water): 58 to 77 mg/mL
- solubility ([4]; organic solvent or mixture, solvent: 1,4-dioxane): 5 to 6 mg/mL
- solubility ([4]; organic solvent or mixture, solvent: 1:1 2-propanol:isopropyl acetate): 10 to 11 mg/mL
- solubility ([4]; organic solvent or mixture, solvent: 2-methyl THF saturated with water): 6 to 8 mg/mL
- solubility ([4]; organic solvent or mixture, solvent: 2-methyl-THF): 5 to 7 mg/mL
- solubility ([4]; organic solvent or mixture, solvent: 2-propanol): 22 to 25 mg/mL
- solubility ([4]; organic solvent or mixture, solvent: 10:1 2-propanol:water): 24 to 28 mg/mL
- solubility ([4]; organic solvent or mixture, solvent: DCM): 67 to 101 mg/mL
- solubility ([4]; organic solvent or mixture, solvent: DMF): 91 to 185 mg/mL
- solubility ([4]; organic solvent or mixture, solvent: DMSO): 106 to 212 mg/mL
- solubility ([4]; organic solvent or mixture, solvent: TBME): < 1 mg/mL
- solubility ([4]; organic solvent or mixture, solvent: THF): 5 to 7 mg/mL
- solubility ([4]; organic solvent or mixture, solvent: acetone): 5 to 6 mg/mL
- solubility ([4]; organic solvent or mixture, solvent: acetonitrile): 22 to 24 mg/mL
- solubility ([4]; organic solvent or mixture, solvent: anisole): < 1 mg/mL
- solubility ([4]; organic solvent or mixture, solvent: ethanol): 67 to 100 mg/mL
- solubility ([4]; organic solvent or mixture, solvent: ethyl acetate): < 1 mg/mL
- solubility ([4]; organic solvent or mixture, solvent: heptane): < 1 mg/mL
- solubility ([4]; organic solvent or mixture, solvent: isopropyl acetate): < 1 mg/mL
- solubility ([4]; organic solvent or mixture, solvent: methanol): > 226 mg/mL
- solubility ([4]; organic solvent or mixture, solvent: toluene): < 1 mg/mL
- solubility ([4]; solvent: water): 20 to 24 mg/mL
- Solubility at 23.6° C. ([5]; solvent: 2-propanol): 7.275 g/100 mL
- Solubility at 23.6° C. ([5]; solvent: N,N-dimethylacetamide): 18.200 g/100 mL
- Solubility at 23.6° C. ([5]; solvent: N,N-dimethylformamide): 18.267 g/100 mL
- Solubility at 23.6° C. ([5]; solvent: acetic acid): 18.209 g/100 mL
- Solubility at 23.6° C. ([5]; solvent: acetone (2-propanone)): 0.578 g/100 mL
- Solubility at 23.6° C. ([5]; solvent: dichloromethane/methanol (50/50 v/v)): 18.589 g/100 mL
- Solubility at 23.6° C. ([5]; solvent: ethanol): 18.297 g/100 mL
- Solubility at 23.6° C. ([5]; solvent: methanol): 18.457 g/100 mL
- solubility thermodynamic at 24 h ([5]; thermodynamic from solid, solvent: demineralized water, 23.6° C.): 53.4 mg/mL

From patent US10815196B2, “(S)-CSA salt of S-ketamine, (R)-CSA salt of S-ketamine and processes for the preparation of S-ketamine” (Janssen Pharmaceutica NV, priority 2015, dated 2020)
